According to patent publication US6603014B1, “Use of cyclic enamines as light protection agents” (BASF Aktiengesellschaft, priority 1999, dated 2003):

Experiment: UV absorption properties (λmax and specific absorbance E 1/1) of the light protection agents
Format: physicochemical
Parameters: unit not given here
From the text: Further Examples 2 to 23 as in Tables 1, 2 and 3 are obtained analogously. Substituents in the aromatic rings can also be introduced later.

[1] = Table 1, specific absorbance at λmax
[2] = Table 2, specific absorbance at λmax
[3] = Table 3, specific absorbance at λmax

Row | λmax (Table 1, UV absorption maximum) | E^11 [1] | SMILES | further results
1 | 316 | 1986 | COC(=O)C(C#N)=C1Nc2ccccc2N1 [Example 3] | 
2 | 326 | 1784 | COc1ccc2c(c1)NC(=C(C#N)C#N)N2 [Example 4] | 
3 | 328 | 1601 | COC(=O)C(C#N)=C1Nc2ccc(OC)cc2N1 [Example 5] | 
4 | 334 | 821 | CCOC(=O)c1ccc2c(c1)NC(=C(C#N)C#N)N2 [Example 6] | 
5 | 332 | 952 | CCOC(=O)c1ccc2c(c1)NC(=C(C#N)C(=O)OC)N2 [Example 7] | 
6 | 318 | 2055 | Cc1ccc2c(c1)NC(=C(C#N)C#N)N2 [Example 8] | 
7 | 320 | 1854 | COC(=O)C(C#N)=C1Nc2ccc(C)cc2N1 [Example 9] | 
8 | 308 | 1844 | N#CC(C#N)=C1Nc2ccccc2O1 [Example 10] | 
9 | 310 | 1778 | COC(=O)C(C#N)=C1Nc2ccccc2O1 [Example 11] | 
10 | 334 | 1776 | N#CC(C#N)=C1Nc2ccccc2S1 [Example 12] | 
11 |  |  | CCCCC(CC)COC(=O)/C(C#N)=C1\Sc2ccccc2N1C (stereo not shown) [Example 13] | λmax (Table 2, UV absorption maximum): 340; E^11 [2]: 1150
12 |  |  | CC1CC(OC(=O)C(C#N)=C2Sc3ccccc3N2C)CC(C)(C)C1 (stereo not shown) [Example 14] | λmax (Table 2, UV absorption maximum): 340; E^11 [2]: 1090
13 |  |  | CCCCCCN1C(=C(C#N)C(=O)OCC(CC)CCCC)Sc2ccccc21 (stereo not shown) [Example 15] | λmax (Table 2, UV absorption maximum): 340; E^11 [2]: 830
14 |  |  | CCCCCCN1C(=C(C#N)C(=O)OC2CC(C)CC(C)(C)C2)Sc2ccccc21 (stereo not shown) [Example 16] | λmax (Table 2, UV absorption maximum): 340; E^11 [2]: 790
15 |  |  | CCCCCCN1C(=C(C#N)C(=O)OC)Sc2ccccc21 [Example 17] | λmax (Table 2, UV absorption maximum): 340; E^11 [2]: 1200
16 |  |  | CCCCOC(=O)C(C#N)=C1Sc2ccccc2N1CCCC [Example 18] | λmax (Table 2, UV absorption maximum): 340; E^11 [2]: 1250
17 |  |  | COC(=O)/C(C#N)=C1\Sc2ccccc2N1CCCS(=O)(=O)O [Example 20] | λmax (Table 3, UV absorption maximum): 340; E^11 [3]: 1200
18 |  |  | COC(=O)/C(C#N)=C1\Nc2ccc(C(=O)c3ccccc3)cc2N1 [Example 21] | λmax (Table 3, UV absorption maximum): 348; E^11 [3]: 740
19 |  |  | CCCCCCN1C(=C(C#N)C(=O)OC)N(CCCCCC)c2ccccc21 [Example 22] | λmax (Table 3, UV absorption maximum): 325; E^11 [3]: 970
20 |  |  | CN1/C(=C(\C#N)C(=O)OCCS(=O)(=O)O)Sc2ccccc21 [Example 23] | λmax (Table 3, UV absorption maximum): 340; E^11 [3]: 1160
21 |  |  | COC(=O)C(C#N)=c1[nH]c2cccc3cccc([nH]1)c32 [Example 24] | λmax (Table 3, UV absorption maximum): 296; E^11 [3]: 1503

Row | SMILES | λmax (Table 1, UV absorption maximum) | E^11 [1] | further results
22 | COC(=O)C(C#N)=C1Nc2ccccc2S1 [Example 1] | 336 | 1723 | 
23 | N#CC(C#N)=C1Nc2ccccc2N1 [Example 2] | 314 | 2297 | 
